Values quoted from earlier work as cited in publication PMC10648852, “Molecular drivers of resistance to sulbactam-durlobactam in contemporary clinical isolates of Acinetobacter baumannii” (Antimicrobial Agents and Chemotherapy, 2023).

Test system: 5,032 ABC clinical isolates
Settings: 5,032 ABC clinical isolates 2016-2021; durlobactam fixed at 4 µg/mL in SUL-DUR; cited from earlier work

CC1(C)[C@H](C(=O)O)N2C(=O)C[C@H]2S1(=O)=O [sulbactam]
MIC50: 8 µg/mL | MIC90: 32 µg/mL
